Test: Sensory panel astringency ranking after brushing with toothpaste samples
Type: in vivo
Conditions: for astringency ratings compared to those of the standard toothpaste base and the current market product: flavour material at 1000 ppm in toothpaste base with 0.75% zinc citrate, statement in words; for Astringency Rating (0-10): mean rating by a panel of three trained experts, 0 = no astringency, 10 = strong astringency, ingredients at 1000 ppm (0.1% w/w) in Standard Toothpaste Base with 0.75% Zinc Citrate, 30 seconds brushing, spit out, one water rinse
Method: Differing flavour ingredients were added, at a concentration of 1000 ppm, to a non-flavoured toothpaste base containing 0.75% zinc citrate (ZCT).
Measured samples, of equal weight, of the non-flavoured toothpaste base containing 0.75% ZCT and the same toothpaste base modified with flavour ingredients were then placed on toothbrushes. The samples were tested by a panel of three independent trained experts. The panelists were instructed to brush their teeth for 30 seconds, spit out and rinse once with water. The subjects were then asked to rank the astringency on a scale of 0 to 10 for each sample, 0 representing no astringency and 10 representing strong astringency. A current market product was also tested in the same way.
Table 1 lists the flavour ingredients added to the non-flavoured toothpaste base containing 0.75% zinc citrate, along with the mean astringency rating of each sample. Also included in table 1 is the mean astringency rating of the non-flavoured toothpaste base containing 0.75% ZCT and the current market product.

Structure (SMILES) | astringency ratings compared to those of the standard toothpaste base and the current market product | Astringency Rating (0-10)
CC1=C(O)C(=O)CC1 [Cyclotene, 2-hydroxy-3-methyl-2-cyclopenten-1-one] | significantly lower astringency ratings | 4.5
CCc1occc(=O)c1O [Ethyl Maltol, 2-ethyl-3-hydroxy-4H-pyran-4-one] | significantly lower astringency ratings | 3.5
Cc1occc(=O)c1O [Maltol, 3-hydroxy-2-methyl-4H-pyran-4-one] | significantly lower astringency ratings | 3.8
COc1cc(C=O)ccc1O [Vanillin, reference compound] | – | 6.5

— US20120082631A1, “COMPOSITIONS” (priority 2009, published 2012)
